The values that follow come from US6602515B2, “Photo stable organic sunscreen compounds with antioxidant properties and compositions obtained therefrom” (EM Industries, priority 2001, dated 2003).

The nature of data set [1]: DPPH test method (antioxidant property, % reducing activity). The conditions noted are these: 20 minutes, 517 nm. It is filed as biochemical. On the procedure:
A DPPH concentrate (2.5×) of 25 mg of 1,1-Diphenyl-2-Picyrl-Hydrazyl ACS# 1898-66-4 (Sigma #D-9132, lot 99H3601) dissolved in 250 mL ethanol (USP), is prepared fresh on the measurement date. A DPPH working solution is then prepared by diluting 100 mL of this concentrate to a final volume of 250 mL ([…]). A blank 13×100 mm borosilicate glass screw top tube of ethanol (USP) is used to zero the spectrometer (Milton Roy, Spectronic 20+) at 517 nm and a control tube of DPPH working solution is measured under identical conditions, and taken as 0% activity. Aliquots of the 0.25% & 0.5% (RT & 45° C.) test solution are added to tubes followed by the rapid addition of 4 mL DPPH working solution then rapidly capped and mixed. After 20 minutes, the absorbance of each sample is read at 517 nm.
The percent reducing activity (% RA) is calculated using the following equation:
% Reduction Activity=100 A(0)-A(20)/A(0)
Where A(0) is the absorbance value of the DPPH working solution at 517 nm zeroed against an ethanol blank and A(20) is the absorbance at 517 nm, 20 minutes after combining the antioxidant with the DPPH working solution.
The concentration of antioxidant (mg/ml) in the final assay mixture is calculated based on the dilution of respective aliquots of each compound in the final assay volume and % RA tabulated and plotted as percent activity at each concentration in the dilution series.

Data set [2] is described as follows: Photostability, 2 hours illumination in Xe arc solar simulator, UV-visible absorption spectrum. It is filed as physicochemical. The conditions noted are these: for photostability compared to Octocrylene: 2 hours of illumination in the solar simulator. The text has this: The solar simulator used for illumination of the samples in the experiments was constructed incorporating a 1 kw Xe arc lamp, optical bench and sample illumination chamber. The lamp output was filtered through a water filter with a course window to remove most of the infrared radiation and optical filters to remove wavelengths below 290 nm. The output of the illumination system was focused onto the face of a 1 cm quartz Cuvette that was thermally equilibrated with a constant temperature water bath at 25 ° C. A magnetic stir was mounted under the Cuvette so that the samples could be stirred while being illuminated. An electric shutter was controlled by a dark room timer to provide precise control of illumination times. The solar simulator was constructed to provide illumination that closely matches terrestrial sunlight. The solar simulator delivered roughly 250 J/cm^2 over a 2-hour period of illumination in a 290-490 nm range. This irradiance was determined using two nitrobenzaldehyde chemical actinometry. The irradiance is much higher than other solar simulator systems which typically illuminate a large area in order to illuminate many samples simultaneously rather than being focused down to a very small area. Each exploratory sunscreen compound was dissolved in 70% ethanol/30% isopropyl myristate and/or 70% ethanol/30% water and the UV visible absorption spectrum measured with a Shimadza UV 2101-double beam spectrophotometer using the solvent as reference. A similar solution of Octocrylene was prepared and the UV-visible absorption spectrum measured. Each solution was then illuminated for two hours in the solar simulator. After illumination, the absorption spectrum was again measured each solution.

A short description of a further data set: physchem. It is filed as physicochemical. As to the method:
Individual solutions of selected sunscreen compounds (2/1, 2/4, 2/5, 2/7 and 2/8) with Avobenzone were as follows. Each sunscreen compound was dissolved in 70% ethanol/30% H2O solution containing roughly an equal molar amount of Avobenzone. A similar solution containing Di-2-ethylhexyl-2,6-napthalene dicarboxylic acid (DENDA) and Avobenzone was also prepared. Each solution was then illuminated in the solar simulator as configured above for the photostability tests and aliquots of each solution were removed at 30-minute time intervals. These aliquots were injected into an HPLC and the loss of Avobenzone was followed with illumination time. The high performance liquid chromatograph (HPLC) used for all experiments reported therein incorporated a Spectra-Physics model P-200 pump with an Applied Biosystems model 785A UV-Visible detector with a Rheodyne manual injector incorporating a […] sample loop and a 150×4.6 mm reversed-phase C18 column (Alltech). All analyses were carried out under isocratic elution conditions using CH3OH/H2O mixtures for the mobile phase at a flow rate of […] per minute. It was necessary to employ HPLC separation of Avobenzone from each of the sunscreen compounds to quantify Avobenzone due to the absorption spectra overlap with some of these compounds.

Data set [3] can be described thus: Absorbance and molar absorptivity of sunscreen compounds. It is filed as physicochemical. The conditions noted are these: for molar absorption compared to Avobenzone: 70% ethanol and 30% isopropyl myristate; for ελMax / λMax: 70% ethanol/30% H2O solution. As to the method:
Each exploratory sunscreen compound was dissolved in 70% ethanol/30% isopropyl myristate and/or 70% ethanol/30% water and the UV visible absorption spectrum measured with a Shimadza UV 2101-double beam spectrophotometer using the solvent as reference. A similar solution of Octocrylene was prepared and the UV-visible absorption spectrum measured. Each solution was then illuminated for two hours in the solar simulator. After illumination, the absorption spectrum was again measured each solution. […]

Setting [4] is: 0.028 mg/ml in final assay mixture.
Setting [5] is: 0.056 mg/ml in final assay mixture.
Where [6] appears, read: 0.139 mg/ml in final assay mixture.
The mark [7] stands for this setting: 0.278 mg/ml in final assay mixture.
[8] abbreviates: 2.500 mg/ml in final assay mixture.
Setting [9] is: after 2 hours of illumination in the solar simulator.

As for `CCOC(=O)C(=Cc1cc(OC)c(O)c(OC)c1)C(=O)OCC` [2/4, diethyl-3,5-dimethoxy-4-hydroxy benzylidene malonate], the “% Reducing Activity” value in data set [1] (setting [4]) was determined as 5.2%; in data set [1] (setting [5]), 12.8%; in data set [1] (setting [6]), 29.51%; in data set [1] (setting [7]) it was 33.4%; in data set [1] (setting [8]), 71.70%. Further, in data set [2], the “stability compared to Avobenzone” value is given as “appear to be more stable than Avobenzone”. Moreover, the “photostability compared to Octocrylene” value in data set [2] is “comparable photo stabilities to Octocrylene”. For the same molecule, in data set [2] (setting [9]), the “photostability (retention of absorptivity), in words” value (shortened to “photostability … in words”) is on record as “retain most of their absorptivity”. Further, the “stabilization of Avobenzone, compared with DENDA” value in “physchem” is listed as “appear to stabilize Avobenzone as effectively as DENDA”. Moreover, the “molar absorption compared to Avobenzone” value in data set [3] is listed as “lower molar absorption than Avobenzone”. In addition, in data set [3], the ελMax stood at 12000 M⁻¹ cm⁻¹. Also, the λMax in data set [3] turned out to be 338 nm.

For the molecule `CCCCC(CC)COC(=O)C(=Cc1cc(OC)c(O)c(OC)c1)C(=O)OCC(CC)CCCC` (stereo not shown) [2/8, di(2-ethyl-hexyl)-3,5-dimethoxy-4-hydroxy benzylidene malonate], the “% Reducing Activity” value came to 8.5% in data set [1] (setting [4]), 13.0% in data set [1] (setting [5]), 23.2% in data set [1] (setting [6]) and 33.7% in data set [1] (setting [7]). In addition, the “absorption after illumination relative to the initial value” in data set [2] (2 hour period of illumination, not precise) is given as “approximately 82%”. Also, the “stabilization of Avobenzone, compared with DENDA” value in the data set “physchem” is given as “appear to stabilize Avobenzone as effectively as DENDA”. Also, the ελMax in data set [3] is 16000 M⁻¹ cm⁻¹. For the same molecule, the λMax in data set [3] is 340 nm.

Turning to `CCOC(=O)C(=Cc1cc(OC)c(O)c(OC)c1)C(C)=O` [2/5, ethyl-alpha-acetyl-3,5-dimethoxy-4-hydroxy cinnamate], the “% Reducing Activity” value in data set [1] (setting [4]) was 20.7%. For the same molecule, in data set [1] (setting [5]), the “% Reducing Activity” value amounted to 31.0%. For the same molecule, the “% Reducing Activity” value in data set [1] (setting [6]) turned out to be 47.3%. In data set [1] (setting [7]), the “% Reducing Activity” value is recorded as 59.9%. In addition, in data set [2], the “stability compared to Avobenzone” value is recorded as “appear to be more stable than Avobenzone” and the “photostability compared to Octocrylene” value is on record as “comparable photo stabilities to Octocrylene”. For the same molecule, the “photostability … in words” value in data set [2] (setting [9]) is “retain most of their absorptivity”. Also, in the data set “physchem”, the “stabilization of Avobenzone, compared with DENDA” value is on record as “somewhat less effective than DENDA”. Also, in data set [3], the “molar absorption compared to Avobenzone” value was “lower molar absorption than Avobenzone”, the ελMax was determined as 19000 M⁻¹ cm⁻¹ and the λMax stood at 348 nm.

Regarding `CCOC(=O)C(C)=Cc1cc(OC)c(O)c(OC)c1` [2/7, ethyl-alpha-methyl-3,5-dimethoxy-4-hydroxy cinnamate], the “% Reducing Activity” value turned out to be 46.1% in data set [1] (setting [4]), 61.2% in data set [1] (setting [5]), 77.3% in data set [1] (setting [6]) and 85.0% in data set [1] (setting [7]). Further, in data set [2] (setting [9]), the loss of absorbance is reported as 72%. This molecule also yielded a λMax in data set [3] of 314 nm.

As to `CCCCC(CC)COC(=O)C(C#N)=C(c1ccccc1)c1ccccc1` (stereo not shown) [Octocrylene, reference compound], in data set [2] (setting [9]), the “photostability … in words” value is recorded as “no loss in absorptivity”.

With `CCOC(=O)C(=Cc1cc(OC)c(OC)c(OC)c1)C(=O)OCC` [2/1, diethyl-3,4,5-trimethoxy benzylidene malonate, reference compound], the “% Reducing Activity” value in data set [1] (setting [8]) is reported as 0.0%. In data set [2], the “photostability compared to Octocrylene” value is “comparable photo stabilities to Octocrylene”. In addition, the “photostability … in words” value in data set [2] (setting [9]) is given as “retain most of their absorptivity”. Further, in “physchem”, the “stabilization of Avobenzone, compared with DENDA” value is “appear to stabilize Avobenzone as effectively as DENDA”. In data set [3], the ελMax turned out to be 20000 M⁻¹ cm⁻¹ and the λMax stood at 313 nm.

In the case of `COc1cc(C=C(C(=O)OCCC(C)C)C(=O)OCCC(C)C)cc(OC)c1O` [2/10, di-iso-amyl-3,5-dimethoxy-4-hydroxy benzylidene malonate], the “% Reducing Activity” value in data set [1] (setting [4]) is recorded as 10.2%; in data set [1] (setting [5]), 14.6%; in data set [1] (setting [6]), 22.3%; in data set [1] (setting [7]), 30.1%.

`COc1ccc(C(=O)CC(=O)c2ccc(C(C)(C)C)cc2)cc1` [Avobenzone, reference compound] had a half-life in the data set “physchem” of approximately 3 h. In addition, in data set [3], the ελMax stood at 25000 M⁻¹ cm⁻¹ and the λMax is listed as 360 nm.

Turning to `CCOC(=O)C(C#N)=Cc1cc(OC)c(O)c(OC)c1` [2/3, ethyl-alpha-cyano-3,5-dimethoxy-4-hydroxy cinnamate], the “% Reducing Activity” value in data set [1] (setting [4]) is 5.2%; in data set [1] (setting [5]) it was 8.4%; in data set [1] (setting [6]), 11.3%; in data set [1] (setting [7]) it was 15.5%; in data set [1] (setting [8]), 25.40%.

Turning to `CCOC(=O)C(C#N)=Cc1cc(OC)c(OC)c(OC)c1` [2/2, ethyl-alpha-cyano-3,4,5-trimethoxy cinnamate, reference compound], the “% Reducing Activity” value in data set [1] (setting [8]) is recorded as 3%.

`CCCCC(CC)COC(=O)c1ccc2cc(C(=O)OCC(CC)CCCC)ccc2c1` (stereo not shown) [DENDA, Di-2-ethylhexyl-2,6-napthalene dicarboxylic acid, reference compound]: in the data set “physchem”, the “stabilization of Avobenzone, compared with DENDA” value is “Initially the loss of Avobenzone was quite rapid but then seemed to become stable”.
